Assay results as given in US8729053B2, “Nuclear factor kappa B pathway inhibitor composition and use of same” (The United States of America, as represented by the …, priority 2008, dated 2014).
Entries after “also recorded” stand apart in the source; their conditions may differ. Structures can show the parent of a compound that is named as a salt.

Columns and labels:
Type in all cases: cell-based
NFκB = experiment: EMSA of NFκB DNA binding, HEK293 nuclear fractions
Experimental: (§1) EMSA was performed with the nuclear fraction of HEK293 cell using LightShift Chemiluminescent EMSA Kit (Pierce Biotechnology, Rockford, Ill.) according to the manufacture's instruction. Oligonucleotides for NFκB, NF-1, and AP-1 were labeled with biotin by Biotin 3′ End DNA labeling Kit (Pierce Biotechnology, Rockford, Ill.). The quantified 15 μg of nuclear extracts were incubated for 20 mins with 1 μg/μl Poly (dI.dC), biotin end-label target nucleotides in 20 μl binding buffer DNA-protein complexes were fractionated on 6% a polyacrylamide gel and transferred to a nylon membrane. The membranes were processed to detect biotin-label DNA by cross-linking, blocking, and detection incubations. Results were obtained by X-ray film exposure for 10 sec and development. The target sequences of oligonucleotides for NFκB, NF-1, and AP-1 are as follows;
To determine whether the effect of compound I on nuclear translocation of NFκB leads to inhibited binding of NFκB proteins to DNA, EMSA in HEK293 cells was performed. […] TPA-induced binding complex was attenuated by pretreatment with compound I in a dose-dependent manner (lanes 5-9). This binding inhibition parallels the inhibition of luciferase reporter transactivation and inhibition of nuclear translocation of NFκB proteins. The TPA-induced binding complex disappeared when the labeled NFκB oligonucleotide was competed with an excess of unlabelled probe (90× fold).

cell proliferation = experiment: Cell proliferation
ERK 1/2 (p42/44) = experiment: Immunoblot of TPA-induced ERK 1/2 phosphorylation; conditions: 17.0 μM and 8.5 μM pretreatment
Experimental: (§2) To measure endogenous level of several proteins in response to TPA induction and compound I, HEK293 cells were lysed with RIPA buffer (10 mM Tris-HCl pH 7.5, 1 mM EDTA, 0.1% sodium dodecyl sulfate, 0.1% deoxycholate, and protease inhibitor). Whole cell extracts were subjected to immunoblot analysis with the following antibodies: p65 (F-6), p50 (E-10), p52 (C-5), RelB (C-19), IκBα (C-21), PCNA (F-2) were obtained from Santa Cruz Biotechnology (Santa Cruz, Calif.). IKKα, IKKβ, IKKγ, phospho-IκBα, phospho-IKKα/β, phospho-IKKγ, pohospho-Stat3 (Tyr 705 and Ser 727), phospho-p65 (Ser536 and Ser276), phospho-p44/42, phospho-JNKs were purchased from Cell Signaling (Danvers, Mass.), and α-tubulin from Sigma (St. Louis, Mo.). Nuclear and cytoplasmic extracts were prepared with HEK293 cells by NE-PER Nuclear and Cytoplasmic Extraction Reagents (Pierce Biotechnology, Rockford, Ill.) according to the manufacturer's protocol.
The selectivity of compound I was evaluated by measuring phosphorylation of proteins involved in the AP-1 induction pathway. AP-1 dependent transcription can be activated by MAP Kinases JNK, ERK 1/2 (p44/42). […] At these concentrations compound I, in contrast, completely repressed major regulators in the NFκB activation pathway. JNKs are activated by a variety of environmental stresses responsible for AP-1 activation through c-Jun phosphorylation. […]

p65/p50 = experiment: Nuclear translocation of p65/p50, immunoblot of nuclear and cytoplasmic extracts; conditions: compound I pretreatment, HEK293
Experimental: as §2
Nuclear translocation of endogenous p65/p50 and RelB/p52 heterodimers were monitored The activation of heterodimers p65/p50 and RelB/p52 occurs by distinct pathways dependent on IKKβ or IKKα catalytic activity. Repression of IKKβ would be expected to influence nuclear translocation of p65/p50 while repression of IKKα would influence processing of p100 to p52. […] However translocation of RelB is only dependent on IKKα for processing of its dimer partner p52 from p100. […]

NF-1 = experiment: EMSA of NF-1 DNA binding, HEK293 nuclear fractions; conditions: 17 μM
Experimental: as §1
To determine whether the effect of compound I on nuclear translocation of NFκB leads to inhibited binding of NFκB proteins to DNA, EMSA in HEK293 cells was performed. […] TPA-induced binding complex was attenuated by pretreatment with compound I in a dose-dependent manner (lanes 5-9). This binding inhibition parallels the inhibition of luciferase reporter transactivation and inhibition of nuclear translocation of NFκB proteins. […]

Cc1cc(N)ccc1N=Nc1ccc(S(=O)(=O)CCOS(=O)(=O)O)cc1 [compound I, 2-(4-((4-amino-2-methylphenyl)diazenyl)phenylsulfonyl)ethyl hydrogen sulfate]
NFκB DNA binding (NFκB; concentrations as low as 1.1 μM): repressed | TPA-induced NFκB DNA binding complex, dose-dependent manner (NFκB; lanes 5-9, 1 hour pretreatment, TPA 18 hours): attenuated | TPA-induced NFκB DNA binding complex (NFκB; pretreatment at 17 μM): marked loss of binding complex | Suppression of cell proliferation (cell proliferation): does not suppress | TPA-induced phosphorylation of endogenous ERK 1/2 (p42/44) (ERK 1/2 (p42/44)): no repression | TPA-induced nuclear translocation of p65 (RelA) (p65/p50): remarkably repressed; also recorded: interception | NF-1 DNA binding activity (NF-1): little or no effect
